Assay results taken from patent US10597388B2, “Pyridazinone herbicides” (FMC CORPORATION, priority 2014, dated 2020).

Tests used:
Assay in all cases: Test C greenhouse herbicide test, pre- and postemergence
Format in all cases: in vivo
soybean (Glycine max) = tested on: soybean (Glycine max)
Procedure, shortened: (§1)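 Seeds sown in loam–sand blend treated preemergence; plants in peat-based medium sprayed postemergence at 2–18 cm (1- to 4-leaf stage); chemicals in non-phytotoxic solvent with surfactant. Greenhouse 13–15 d, then visual rating versus controls on 0–100 scale (0 no effect, 100 complete control).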

[1] = tested on: velvetleaf (Abutilon theophrasti)
Procedure, shortened: as §1

[2] = tested on: foxtail, giant (giant foxtail, Setaria faberii)
Procedure, shortened: as §1

[3] = tested on: nutsedge, yellow (yellow nutsedge, Cyperus esculentus)
Procedure, shortened: as §1

[4] = tested on: wheat (winter wheat, Triticum aestivum)
Procedure, shortened: as §1

[5] = tested on: johnsongrass (Sorghum halepense)
Procedure, shortened: as §1

[6] = tested on: crabgrass, large (large crabgrass, Digitaria sanguinalis)
Procedure, shortened: as §1

[7] = tested on: barnyardgrass (Echinochloa crus-galli)
Procedure, shortened: as §1

[8] = tested on: blackgrass (Alopecurus myosuroides)
Procedure, shortened: as §1

[9] = tested on: galium (catchweed bedstraw, Galium aparine)
Procedure, shortened: as §1

[10] = tested on: ryegrass, Italian (Italian ryegrass, Lolium multiflorum)
Procedure, shortened: as §1

corn (Zea mays) = tested on: corn (Zea mays)
Procedure, shortened: as §1

[11] = Postemergence, 31 g ai/ha, scale 0 to 100 (0 no effect, 100 complete control)
[12] = Postemergence, 125 g ai/ha, scale 0 to 100, 0 is no effect, 100 is complete control
[13] = Postemergence, 250 g ai/ha, scale 0 to 100, 0 no effect, 100 complete control, 13 to 15 d
[14] = Preemergence, 31 g ai/ha, scale 0 to 100, 0 is no effect, 100 is complete control
[15] = Preemergence, 62 g ai/ha, scale 0 to 100, 0 is no effect, 100 is complete control
[16] = Preemergence, 125 g ai/ha, scale 0 to 100, 0 is no effect, 100 is complete control
[17] = Preemergence, 250 g ai/ha, scale 0 to 100, 0 no effect, 100 complete control
[18] = postemergence, 62 g ai/ha, scale 0 to 100, 0 no effect, 100 complete control

With `CC(=O)Oc1c(C)nn(C)c(=O)c1-c1c(C)sc2ccc(Cl)cc12` [Compound 108] as the compound, how does the “Plant response rating, Soybean” value (soybean (Glycine max); [11]) read?
Its value is 10.

And the “Plant response rating, Soybean” value (soybean (Glycine max); [12])?
The value was 15.

What about the “Plant response rating, Soybean” value (soybean (Glycine max); [13]) of the same compound?
The value was 15.

And the “Plant response rating, Soybean” value (soybean (Glycine max); [14])?
Its value is 0.

And the “Plant response rating, Soybean” value (soybean (Glycine max); [15])?
The value was 0.

And the “Plant response rating, Soybean” value (soybean (Glycine max); [16])?
Its value is 0.

What about the “Soybean plant response rating” value (soybean (Glycine max); [17]) of the same compound?
Its value is 0.

What about the “Plant response rating, Velvetleaf” value [1, 11] of the same compound?
Its value is 70.

And the “Plant response rating, Velvetleaf” value [1, 12]?
Its value is 100.

What about the “Plant response rating, Velvetleaf” value [1, 13] of the same compound?
Its value is 100.

What about the “Plant response rating, Velvetleaf” value [1, 14] of the same compound?
The value was 50.

What about the “Plant response rating, Velvetleaf” value [1, 15] of the same compound?
Its value is 75.

And the “Plant response rating, Velvetleaf” value [1, 16]?
Its value is 85.

And the “Velvetleaf plant response rating” value [1, 17]?
Its value is 90.

What about the “Plant response rating, Foxtail, Giant” value [2, 11] of the same compound?
Its value is 30.

And the “Plant response rating, Foxtail, Giant” value [2, 12]?
The value was 75.

And the “Plant response rating, Foxtail, Giant” value [2, 13]?
Its value is 85.

What about the “Plant response rating, Foxtail, Giant” value [2, 14] of the same compound?
Its value is 65.

And the “Plant response rating, Foxtail, Giant” value [2, 15]?
The value was 85.

What about the “Plant response rating, Foxtail, Giant” value [2, 16] of the same compound?
The value was 85.

And the “Foxtail, Giant plant response rating” value [2, 17]?
The value was 95.

What about the “Plant response rating, Nutsedge, Yellow” value [3, 11] of the same compound?
The value was 30.

And the “Plant response rating, Nutsedge, Yellow” value [3, 12]?
Its value is 70.

What about the “Plant response rating, Nutsedge, Yellow” value [3, 13] of the same compound?
Its value is 75.

What about the “Plant response rating, Nutsedge, Yellow” value [3, 14] of the same compound?
Its value is 35.

What about the “Plant response rating, Nutsedge, Yellow” value [3, 15] of the same compound?
The value was 80.

What about the “Plant response rating, Nutsedge, Yellow” value [3, 16] of the same compound?
Its value is 70.

And the “Nutsedge, Yellow plant response rating” value [3, 17]?
Its value is 80.

And the “Plant response rating, Wheat” value [4, 11]?
Its value is 0.

What about the “Plant response rating, Wheat” value [4, 12] of the same compound?
The value was 5.

What about the “Plant response rating, Wheat” value [4, 13] of the same compound?
Its value is 10.

And the “Plant response rating, Wheat” value [4, 14]?
Its value is 0.

What about the “Plant response rating, Wheat” value [4, 15] of the same compound?
The value was 10.

What about the “Plant response rating, Wheat” value [4, 16] of the same compound?
The value was 15.

And the “Wheat plant response rating” value [4, 17]?
Its value is 10.

And the “Plant response rating, Johnsongrass” value [5, 11]?
Its value is 0.

What about the “Plant response rating, Johnsongrass” value [5, 12] of the same compound?
Its value is 5.

What about the “Plant response rating, Johnsongrass” value [5, 13] of the same compound?
Its value is 5.

And the “Plant response rating, Johnsongrass” value [5, 14]?
The value was 0.

What about the “Plant response rating, Johnsongrass” value [5, 15] of the same compound?
The value was 5.

And the “Plant response rating, Johnsongrass” value [5, 16]?
Its value is 30.

And the “Johnsongrass plant response rating” value [5, 17]?
The value was 20.

What about the “Plant response rating, Crabgrass, Large” value [6, 11] of the same compound?
The value was 5.

What about the “Plant response rating, Crabgrass, Large” value [6, 12] of the same compound?
The value was 25.

And the “Plant response rating, Crabgrass, Large” value [6, 13]?
The value was 40.

And the “Plant response rating, Crabgrass, Large” value [6, 14]?
Its value is 5.

What about the “Plant response rating, Crabgrass, Large” value [6, 15] of the same compound?
The value was 70.

What about the “Plant response rating, Crabgrass, Large” value [6, 16] of the same compound?
The value was 65.

And the “Crabgrass, Large plant response rating” value [6, 17]?
The value was 70.

And the “Crabgrass, Large plant response rating” value [6, 18]?
The value was 10.

What about the “Plant response rating, Barnyardgrass” value [7, 11] of the same compound?
The value was 20.

And the “Plant response rating, Barnyardgrass” value [7, 12]?
Its value is 40.

What about the “Plant response rating, Barnyardgrass” value [7, 13] of the same compound?
The value was 60.

What about the “Plant response rating, Barnyardgrass” value [7, 14] of the same compound?
The value was 5.

What about the “Plant response rating, Barnyardgrass” value [7, 15] of the same compound?
Its value is 35.

What about the “Plant response rating, Barnyardgrass” value [7, 16] of the same compound?
The value was 35.

What about the “Barnyardgrass plant response rating” value [7, 17] of the same compound?
The value was 85.

And the “Barnyardgrass plant response rating” value [7, 18]?
Its value is 35.

What about the “Plant response rating, Blackgrass” value [8, 11] of the same compound?
The value was 15.

And the “Plant response rating, Blackgrass” value [8, 12]?
Its value is 35.

And the “Plant response rating, Blackgrass” value [8, 13]?
Its value is 55.

What about the “Plant response rating, Blackgrass” value [8, 14] of the same compound?
Its value is 10.

And the “Plant response rating, Blackgrass” value [8, 15]?
Its value is 0.

And the “Plant response rating, Blackgrass” value [8, 16]?
Its value is 60.

What about the “Blackgrass plant response rating” value [8, 17] of the same compound?
Its value is 85.

And the “Blackgrass plant response rating” value [8, 18]?
Its value is 35.

What about the “Plant response rating, Galium” value [9, 11] of the same compound?
The value was 90.

And the “Plant response rating, Galium” value [9, 12]?
The value was 95.

And the “Plant response rating, Galium” value [9, 13]?
The value was 95.

And the “Plant response rating, Galium” value [9, 14]?
The value was 90.

And the “Plant response rating, Galium” value [9, 15]?
Its value is 90.

What about the “Plant response rating, Galium” value [9, 16] of the same compound?
The value was 95.

And the “Galium plant response rating” value [9, 17]?
Its value is 95.

And the “Plant response rating, Ryegrass, Italian” value [10, 11]?
The value was 90.

What about the “Plant response rating, Ryegrass, Italian” value [10, 12] of the same compound?
The value was 90.

And the “Plant response rating, Ryegrass, Italian” value [10, 13]?
Its value is 90.

What about the “Plant response rating, Ryegrass, Italian” value [10, 14] of the same compound?
Its value is 60.

And the “Plant response rating, Ryegrass, Italian” value [10, 15]?
Its value is 85.

What about the “Plant response rating, Ryegrass, Italian” value [10, 16] of the same compound?
The value was 90.

What about the “Ryegrass, Italian plant response rating” value [10, 17] of the same compound?
The value was 95.

What about the “Plant response rating, Corn” value (corn (Zea mays); [11]) of the same compound?
The value was 5.

What about the “Plant response rating, Corn” value (corn (Zea mays); [12]) of the same compound?
Its value is 25.

What about the “Plant response rating, Corn” value (corn (Zea mays); [13]) of the same compound?
The value was 30.

What about the “Plant response rating, Corn” value (corn (Zea mays); [14]) of the same compound?
Its value is 5.

And the “Plant response rating, Corn” value (corn (Zea mays); [15])?
The value was 10.

What about the “Plant response rating, Corn” value (corn (Zea mays); [16]) of the same compound?
The value was 5.

And the “Corn plant response rating” value (corn (Zea mays); [17])?
The value was 15.

And the “Corn plant response rating” value (corn (Zea mays); [18])?
Its value is 40.
